From publication PMC7954579 (Cancer chemotherapy and pharmacology, 2020)
“And” between values parts separate entries of the source, which are not always exact repeats. Identical values can stand only once.

Experiments:
[1] = Plasma pharmacokinetics in patients; type: in vivo, human; details: for half-life: t1/2,z
[2] = tested on: colorectal cancer cell line; assay: In vitro combination study in a colorectal cancer cell line; type: cell-based; details: Supplementary Fig. 1A
CDKs 1,2,4,5, and 9 = details: read-out: IC50 range; cited from earlier work
[3] = twice-weekly schedule, monotherapy; cited from earlier work
[4] = IV, days 1, 4, 8, 11 of 21-day cycle, with onalespib 80 mg/m^2 (DL2)
[5] = All dose levels, C1D1, AT7519 after onalespib, n = 23, geometric mean
[6] = All dose levels, C1D11, AT7519 after onalespib, n = 15, geometric mean
[7] = DL1, C1D1, AT7519 21 mg/m^2 IV after onalespib 40 mg/m^2, n = 4, geometric mean
[8] = DL1, C1D11, AT7519 21 mg/m^2 IV after onalespib 40 mg/m^2, n = 2, geometric mean
[9] = DL2, C1D1, AT7519 21 mg/m^2 IV after onalespib 80 mg/m^2, n = 15, geometric mean
[10] = DL2, C1D11, AT7519 21 mg/m^2 IV after onalespib 80 mg/m^2, n = 11, geometric mean
[11] = DL3, C1D1, AT7519 27 mg/m^2 IV after onalespib 80 mg/m^2, n = 4, geometric mean
[12] = DL3, C1D11, AT7519 27 mg/m^2 IV after onalespib 80 mg/m^2, n = 2, geometric mean
[13] = human, plasma, iv, DL1, C1D1, AT7519 21 mg/m^2 IV after onalespib 40 mg/m^2, n = 4, geometric mean
[14] = human, plasma, iv, DL1, C1D11, AT7519 21 mg/m^2 IV after onalespib 40 mg/m^2, n = 2, geometric mean
[15] = human, plasma, iv, DL2, C1D1, AT7519 21 mg/m^2 IV after onalespib 80 mg/m^2, n = 15, geometric mean
[16] = human, plasma, iv, DL2, C1D11, AT7519 21 mg/m^2 IV after onalespib 80 mg/m^2, n = 11, geometric mean
[17] = human, plasma, iv, DL3, C1D1, AT7519 27 mg/m^2 IV after onalespib 80 mg/m^2, n = 4, geometric mean
[18] = human, plasma, iv, DL3, C1D11, AT7519 27 mg/m^2 IV after onalespib 80 mg/m^2, n = 2, geometric mean

## O=C(NC1CCNCC1)c1n[nH]cc1NC(=O)c1c(Cl)cccc1Cl [AT7519, N-(4-piperidinyl)-4-(2,6-dichlorobenzoylamino)-1H-pyrazole-3-car-boxamide]
[1]; [5]
  CL: 9.97 L/h/m^2
  Vz: 144.3 L/m^2
[1]; [6]
  CL: 8.93 L/h/m^2
  Vz: 135.9 L/m^2
[1]; [7]
  CL: 13.6 L/h/m^2
  Vz: 146.6 L/m^2
[1]; [8]
  CL: 9.98 L/h/m^2
  Vz: 155.9 L/m^2
[1]; [9]
  CL: 9.1 L/h/m^2 and 9.13 L/h/m^2
  Cmax: 459.3 ng/mL
  Vz: 146.3 L/m^2
[1]; [10]
  CL: 8.6 L/h/m^2 and 8.58 L/h/m^2
  Cmax: 508.7 ng/mL
  Vz: 132.6 L/m^2
[1]; [11]
  CL: 10.1 L/h/m^2
  Vz: 134.7 L/m^2
[1]; [12]
  CL: 10.0 L/h/m^2
  Vz: 135.5 L/m^2
[1]; [13]
  AUC: 1540 ng·h/mL
  half-life: 7.48 h
[1]; [14]
  AUC: 2100 ng·h/mL
  half-life: 10.8 h
[1]; [15]
  AUC: 2300 ng·h/mL
  half-life: 11.1 h
[1]; [16]
  AUC: 2450 ng·h/mL
  half-life: 10.7 h
[1]; [17]
  AUC: 2660 ng·h/mL
  half-life: 9.21 h
[1]; [18]
  AUC: 2700 ng·h/mL
  half-life: 9.38 h
[1]; human, plasma, iv, Cmax, DL1, C1D1, AT7519 21 mg/m^2 IV after onalespib 40 mg/m^2, n = 4, geometric mean
  Cmax: 463 ng/mL
[1]; human, plasma, iv, Cmax, DL1, C1D11, AT7519 21 mg/m^2 IV after onalespib 40 mg/m^2, n = 2, geometric mean
  Cmax: 486 ng/mL
[1]; human, plasma, iv, Cmax, DL2, C1D1, AT7519 21 mg/m^2 IV after onalespib 80 mg/m^2, n = 15, geometric mean
  Cmax: 459 ng/mL
[1]; human, plasma, iv, Cmax, DL2, C1D11, AT7519 21 mg/m^2 IV after onalespib 80 mg/m^2, n = 11, geometric mean
  Cmax: 509 ng/mL
[1]; human, plasma, iv, Cmax, DL3, C1D1, AT7519 27 mg/m^2 IV after onalespib 80 mg/m^2, n = 4, geometric mean
  Cmax: 602 ng/mL
[1]; human, plasma, iv, Cmax, DL3, C1D11, AT7519 27 mg/m^2 IV after onalespib 80 mg/m^2, n = 2, geometric mean
  Cmax: 581 ng/mL
[2]
  Effect on onalespib-induced HSP70 upregulation: dose-dependent inhibition of onalespib-induced HSP70 upregulation
CDKs 1,2,4,5, and 9
  IC50: 11 to 220 nM
[3]
  RP2D as individual agent: 27 mg/m^2
[4]
  Maximally tolerated dose (MTD) of AT7519 in the combination: 21 mg/m^2
